The results in this text go back to patent publication US6500853B1, “Inhibitors of phospholipase enzymes” (Genetics Institute, LLC, priority 1998, dated 2002).

One test addresses T1, cPLA2 (Homo sapiens, UniProt P47712).
T1 sequence (P47712 1-749): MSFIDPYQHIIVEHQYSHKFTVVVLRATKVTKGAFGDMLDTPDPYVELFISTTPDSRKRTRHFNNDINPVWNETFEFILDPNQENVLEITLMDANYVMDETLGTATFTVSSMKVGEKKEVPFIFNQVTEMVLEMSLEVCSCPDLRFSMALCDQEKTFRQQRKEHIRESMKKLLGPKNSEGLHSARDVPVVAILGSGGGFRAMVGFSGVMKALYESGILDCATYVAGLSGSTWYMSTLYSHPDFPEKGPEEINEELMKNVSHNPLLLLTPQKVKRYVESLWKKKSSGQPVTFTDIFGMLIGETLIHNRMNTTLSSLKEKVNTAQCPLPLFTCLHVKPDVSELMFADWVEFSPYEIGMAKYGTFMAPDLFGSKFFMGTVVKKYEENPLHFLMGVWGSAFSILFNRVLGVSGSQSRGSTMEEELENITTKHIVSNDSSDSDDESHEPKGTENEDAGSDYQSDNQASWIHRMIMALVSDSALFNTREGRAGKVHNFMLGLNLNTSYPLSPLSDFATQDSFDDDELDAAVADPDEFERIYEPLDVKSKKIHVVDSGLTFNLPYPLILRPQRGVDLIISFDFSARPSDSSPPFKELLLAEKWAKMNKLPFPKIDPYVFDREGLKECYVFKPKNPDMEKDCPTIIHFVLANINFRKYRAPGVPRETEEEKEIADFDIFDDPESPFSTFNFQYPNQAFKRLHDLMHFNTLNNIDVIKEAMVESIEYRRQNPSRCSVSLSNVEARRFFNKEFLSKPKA
Put plainly: Coumarin Assay (cPLA2 inhibition). Type of test: biochemical. As to conditions: for inhibition at 13 µM: CONCENTRATION 13 micromolar; for inhibition at 19 µM: CONCENTRATION 19 micromolar; for inhibition at 0.6 µM: CONCENTRATION 0.6 micromolar; for inhibition at 0.7 µM: CONCENTRATION 0.7 micromolar; for inhibition at 20 µM: CONCENTRATION 20 micromolar; for inhibition at 100 µM: CONCENTRATION 100 micromolar. An outline of the steps:
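Percent inhibition at the stated concentration, from the rate of 460 nm emission rise (360 nm excitation) per minute. Reaction started by adding 4 μg enzyme to compound and 60 μM 7-hydroxycoumarinyl 6-heptenoate in Hepes buffer pH 7.5 with 1 mM EDTA.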

Test [1] concerns Rat Carrageenan-Induced Footpad Edema. Put plainly: Rat Carrageenan-Induced Footpad Edema Test. Type of test: in vivo, male Sprague Dawley rats. As to conditions: footpad volume 3 hours after carrageenan; for inhibition in vivo at 5 mg/kg / inhibition in vivo at 2 mg/kg / inhibition in vivo at 10 mg/kg: Rattus norvegicus, 3 h, read-out: PERCENT INHIBITION; for inhibition in vivo at 5 mg/kg: iv; for inhibition in vivo at 2 mg/kg / inhibition in vivo at 10 mg/kg: po, PO. On the technique in general: Carrageenan injected into the paw causes an acute inflammation.

Broadly, the inhibition is the percentage by which the read-out fell short of the control. Take `CCCCNC(=O)Nc1ccc2c(c1)c(Cc1ccc(C(=O)O)cc1OC)cn2C(c1ccccc1)c1ccccc1` [Example 9, 4[(1-benzhydryl-5-{[(butylamino)carbonyl]amino}-1H-indol-3-yl)methyl]3-methoxybenzoic acid]: on cPLA2 (read-out: PERCENT INHIBITION @), the inhibition at 13 µM came to 50% and the inhibition at 19 µM worked out at 50%. In test [1] (IV, 5 mg/Kg), the inhibition in vivo at 5 mg/kg was 4.46%.
On to `COc1cc(C(=O)O)ccc1Cc1cn(C(c2ccccc2)c2ccccc2)c2ccc(NS(=O)(=O)c3c(C)nn(C)c3Cl)cc12` [Example 95, 4-[(1-benzhydryl-5-{[(5-chloro-1,3-dimethyl-1H-pyrazol-4-yl)sulfonyl]amino}-1H-indol-3-yl)methyl]-3-methoxybenzoic acid], for which the inhibition at 11.5 µM at cPLA2 (CONCENTRATION 11.5 micromolar, read-out: PERCENT INHIBITION @) amounted to 50%. Also, at cPLA2 (read-out: PERCENT INHIBITION @), the inhibition at 13 µM is 50%. Also, in test [1], the inhibition in vivo at 2 mg/kg worked out at 14.9% and the inhibition in vivo at 10 mg/kg came out at 23.2%.
As for `COc1cc(C(=O)NS(=O)(=O)c2ccccc2C)ccc1Cc1cn(C(c2ccccc2)c2ccccc2)c2ccc(Br)cc12` [Example 38, N-{4-[(1-benzhydryl-5-bromo-1H-indol-3-yl)methyl]-3-methoxybenzoyl}-2-methylbenzenesulfonamide], on cPLA2 (CONCENTRATION 0.3 micromolar, read-out: PERCENT INHIBITION @), the inhibition at 0.3 µM is 50%. At cPLA2 (CONCENTRATION 0.45 micromolar, read-out: PERCENT INHIBITION @), the inhibition at 0.45 µM is 50%. Moreover, the inhibition at 0.57 µM at cPLA2 (CONCENTRATION 0.57 micromolar, read-out: PERCENT INHIBITION @) was 50%. In addition, the inhibition at 0.59 µM on cPLA2 (CONCENTRATION 0.59 micromolar, read-out: PERCENT INHIBITION @) came to 50%. Also, on cPLA2 (read-out: PERCENT INHIBITION @), the inhibition at 0.6 µM was 50% and the inhibition at 0.7 µM was found to be 50%. At cPLA2 (CONCENTRATION 0.64 micromolar, read-out: PERCENT INHIBITION @), the inhibition at 0.64 µM was 50%. Moreover, on cPLA2 (CONCENTRATION 0.85 micromolar, read-out: PERCENT INHIBITION @), the inhibition at 0.85 µM stood at 50%. In addition, the inhibition at 1 µM on cPLA2 (CONCENTRATION 1 micromolar, read-out: PERCENT INHIBITION @) amounted to 50%. Also, in test [1], the inhibition in vivo at 2 mg/kg was 15.4% and the inhibition in vivo at 10 mg/kg was determined as 26.3%.
Take `O=C(Nc1ccc2c(c1)c(Cc1ccc(C(=O)O)cc1)cn2C(c1ccccc1)c1ccccc1)OC1CCCC1` [Example 52, 4-[(1-benzhydryl-5-{[(cyclopentyloxy)carbonyl]amino}-1H-indol-3-yl)methyl]benzoic acid]: at cPLA2 (read-out: PERCENT INHIBITION @), the inhibition at 19 µM came to 50% and the inhibition at 20 µM is 50%. For the same compound, in test [1], the inhibition in vivo at 2 mg/kg is -6.75% and the inhibition in vivo at 10 mg/kg worked out at 3.33%.
`CCCCNC(=O)Nc1ccc2c(c1)c(Cc1ccc(C(=O)NS(=O)(=O)C(F)(F)F)cc1OC)cn2C(c1ccccc1)c1ccccc1` [Example 42, N-{4-[(1-benzhydryl-5-{[(butylamino)carbonyl]amino}-1H-indol-3-yl)methyl]-3-methoxybenzoyl}(trifluoro)methanesulfonamide]: the inhibition at 2.2 µM at cPLA2 (CONCENTRATION 2.2 micromolar, read-out: PERCENT INHIBITION @) came to 50%. Also, the inhibition at 3 µM on cPLA2 (CONCENTRATION 3 micromolar, read-out: PERCENT INHIBITION @) amounted to 50%. Also, at cPLA2 (CONCENTRATION 3.8 micromolar, read-out: PERCENT INHIBITION @), the inhibition at 3.8 µM came out at 50%. Further, the inhibition in vivo at 5 mg/kg in test [1] (IV, 5 mg/Kg) turned out to be 7.72%.
For `O=C(O)CCNC(=O)C(=O)c1cn(C(c2ccccc2)c2ccccc2)c2ccc(NC(=O)C3CCCC3)cc12` [Example 103, 3-[(2-{1-benzhydryl-5-[(cyclopentylcarbonyl)amino]-1H-indol-3-yl}-2-oxoacetyl)amino]propanoic acid], on cPLA2 (read-out: PERCENT INHIBITION @), the inhibition at 100 µM was found to be 50%. In addition, the inhibition at 104 µM on cPLA2 (CONCENTRATION 104 micromolar, read-out: PERCENT INHIBITION @) worked out at 50%. In addition, in test [1], the inhibition in vivo at 2 mg/kg was 16.5% and the inhibition in vivo at 10 mg/kg turned out to be 17.3%.
For the compound `COc1cc(C(=O)O)ccc1Cc1cn(C(C)C)c2ccc(NC(=O)OC3CCCC3)cc12` [Example 7, 4-[(5-{[(cylopentyloxy)carbonyl]amino}-1-isopropyl-1H-indol-3yl)methyl]-3-methoxybenzoic acid], the “PERCENT INHIBITION @” value at cPLA2 (CONCENTRATION 50 micromolar) was determined as 11%; on cPLA2 (CONCENTRATION 235 micromolar), 50%. For the same compound, the “PERCENT INHIBITION” value in test [1] (IV, 5 mg/Kg) is reported as −0.65%.
Take `O=C(O)CCNC(=O)c1cn(C(c2ccccc2)c2ccccc2)c2ccc(NC(=O)C3CCCC3)cc12` [Example 101, 3-[({1-benzhydryl-5-[(cyclopentylcarbonyl)amino]-1H-indol-3-yl}carbonyl)amino]propanoic acid]: on cPLA2 (read-out: PERCENT INHIBITION @), the inhibition at 100 µM is 6%. At cPLA2 (CONCENTRATION 400 micromolar, read-out: PERCENT INHIBITION @), the inhibition at 400 µM is 49%. Also, in test [1], the inhibition in vivo at 2 mg/kg stood at 11.2% and the inhibition in vivo at 10 mg/kg was found to be 12.4%.
With `COc1cc(C(=O)O)ccc1Cc1cn(C(c2ccccc2)c2ccccc2)c2ccc(NS(C)(=O)=O)cc12` [Example 10, 4-({1-benzhydryl-5-[(methylsulfonyl)amino]-1H-indol-3-yl}methyl)-3-methoxybenzoic acid], the inhibition at 20 µM on cPLA2 (read-out: PERCENT INHIBITION @) worked out at 50%. Also, the inhibition at 30 µM at cPLA2 (CONCENTRATION 30 micromolar, read-out: PERCENT INHIBITION @) worked out at 50%. For the same compound, the inhibition at 33.5 µM on cPLA2 (CONCENTRATION 33.5 micromolar, read-out: PERCENT INHIBITION @) turned out to be 50%. Besides, the inhibition at 40 µM at cPLA2 (CONCENTRATION 40 micromolar, read-out: PERCENT INHIBITION @) was determined as 50%. The inhibition at 45 µM on cPLA2 (CONCENTRATION 45 micromolar, read-out: PERCENT INHIBITION @) amounted to 50%. Besides, the inhibition in vivo at 5 mg/kg in test [1] (IV, 5 mg/Kg) was determined as 25.3%.
Regarding `Cc1ccccc1S(=O)(=O)NC(=O)c1ccc(Cc2cn(C(c3ccccc3)c3ccccc3)c3ccc([N+](=O)[O-])cc23)cc1` [Example 56, N-{4-[(1-benzhydryl-5-nitro-1H-indol-3-yl)methyl]benzoyl}-2-methylbenzenesulfonamide], the inhibition at 0.98 µM on cPLA2 (CONCENTRATION 0.98 micromolar, read-out: PERCENT INHIBITION @) came to 50%. In addition, on cPLA2 (CONCENTRATION 1.2 micromolar, read-out: PERCENT INHIBITION @), the inhibition at 1.2 µM turned out to be 50%. In test [1], the inhibition in vivo at 2 mg/kg came to 4.22% and the inhibition in vivo at 10 mg/kg amounted to 9.34%.
Consider `COc1cc(C(=O)O)ccc1Cc1cn(C(c2ccccc2)c2ccccc2)c2ccc(Br)cc12` [Example 13, 4-[(1-benzhydryl-5-bromo-1H-indol-3-yl)methyl]-3-methoxybenzoic acid], for which the inhibition at 0.39 µM on cPLA2 (CONCENTRATION 0.39 micromolar, read-out: PERCENT INHIBITION @) stood at 50%. Further, on cPLA2 (CONCENTRATION 0.4 micromolar, read-out: PERCENT INHIBITION @), the inhibition at 0.4 µM was 50%. For the same compound, the inhibition at 0.48 µM at cPLA2 (CONCENTRATION 0.48 micromolar, read-out: PERCENT INHIBITION @) is 50%. The inhibition at 0.55 µM at cPLA2 (CONCENTRATION 0.55 micromolar, read-out: PERCENT INHIBITION @) stood at 50%. Also, on cPLA2 (read-out: PERCENT INHIBITION @), the inhibition at 0.6 µM was 50% and the inhibition at 0.7 µM was 50%. Besides, the inhibition at 0.65 µM on cPLA2 (CONCENTRATION 0.65 micromolar, read-out: PERCENT INHIBITION @) was determined as 50%. Further, at cPLA2 (CONCENTRATION 0.75 micromolar, read-out: PERCENT INHIBITION @), the inhibition at 0.75 µM came out at 50%. Also, at cPLA2 (CONCENTRATION 0.95 micromolar, read-out: PERCENT INHIBITION @), the inhibition at 0.95 µM was found to be 50%. For the same compound, the inhibition at 2.5 µM at cPLA2 (CONCENTRATION 2.5 micromolar, read-out: PERCENT INHIBITION @) came to 73%. Moreover, at cPLA2 (CONCENTRATION 6.25 micromolar, read-out: PERCENT INHIBITION @), the inhibition at 6.25 µM stood at 81%. Moreover, in test [1], the inhibition in vivo at 2 mg/kg stood at 26% and the inhibition in vivo at 10 mg/kg came to 23.6%.
